Earlier results in PMC8217170, “Phase Ib dose-escalation study of the hypoxia-modifier Myo-inositol trispyrophosphate in patients with hepatopancreatobiliary tumors” (Nature Communications, 2021).

Assays:
hepatocellular carcinoma = system: hepatocellular carcinoma; parameters: method as in ref 10 (supplementary references); conditions: syngeneic, orthotopic rat model of hepatocellular carcinoma; ref 10 (supplementary references); cited from earlier work
pancreatic carcinoma = system: pancreatic carcinoma; parameters: method as in ref 15 (supplementary references); conditions: 100 mg/kg gemcitabine; ref 15 (supplementary references); cited from earlier work

Structure (SMILES)	Rats alive after 100 days (hepatocellular carcinoma)	Survival (pancreatic carcinoma) [days]
COc1cccc2c1C(=O)c1c(O)c3c(c(O)c1C2=O)C[C@@](O)(C(=O)CO)C[C@@H]3O[C@H]1C[C@H](N)[C@H](O)[C@H](C)O1 [doxorubicin, reference compound]	one out of ten	–
Nc1ccn([C@@H]2O[C@H](CO)[C@@H](O)C2(F)F)c(=O)n1 [gemcitabine, reference compound]	–	63
